Where two headings read alike, the source gives them in different places. Numbered stars: 1 amine (or outer) side, 2 acyl side, 3 side chain; on linkers, the order of the positions; unused ones are H or OH. Square brackets hold non-standard residues; d marks the D form. Peptide text beside a SMILES is read from it. * marks the point of attachment. Exatecan = CC[C@@]1(O)C(=O)OCc2c1cc1n(c2=O)Cc2c-1nc1cc(F)c(C)c3c1c2[C@@H](N*)CC3; Hexanoyl(6-maleimido) = O=C1C=CC(=O)N1CCCCCC(=O)*; NHCH2OCH2CO = O=C(COCN[*:1])[*:2]
Assays:
Assay in all cases: Cell viability assay (CELLCOUNTING-LITE)
Type in all cases: cell-based
A431 = tested on: A431
Method: (§1) Cancerous cells (5,000/well) were seeded in a culture media in a 96-well flat-bottom plate. A compound was prepared by a 3-fold serial dilution and added into each cell solutions. The cells were incubated for 4 or 5 days at 37° C. under 5% CO2. CELLCOUNTING-LITE was added to each well, mixed, and incubated for 10 min at room temperature. The solution in each cell was transferred to a 96-well white opaque plate for reading.

Raji = tested on: Raji
Method: as §1

RS4; 11 = tested on: RS4; 11
Method: as §1

T47D = tested on: T47D
Method: as §1

Ramos = tested on: Ramos
Method: as §1

KB = tested on: KB
Method: as §1

A375 = tested on: A375
Method: as §1

Skov-3 = tested on: Skov-3
Method: as §1

Hut78 = tested on: Hut78
Method: as §1

H322 = tested on: H322
Method: as §1

HT29 = tested on: HT29
Method: as §1

ASPC-1 = tested on: ASPC-1
Method: as §1

Jurkat = tested on: Jurkat
Method: as §1

N87 = tested on: N87
Method: as §1

MV4; 11 = tested on: MV4; 11
Method: as §1

MCF7 = tested on: MCF7
Method: as §1

H226 = tested on: H226
Method: as §1

[1] = N87 cells, incubated for 4 or 5 days, Table 1, read-out: IC50

SMILES | IC50 (A431; Homo sapiens, A-431) [nM] | IC50 (Raji; Homo sapiens, Raji) [nM] | IC50 (RS4; 11; Homo sapiens, RS4-11) [nM] | IC50 (T47D; Homo sapiens, T47D) [nM] | IC50 (Ramos; Homo sapiens, Ramos) [nM] | IC50 (KB; Homo sapiens, KB) [nM] | IC50 (A375; Homo sapiens, A-375) [nM] | IC50 (Skov-3; Homo sapiens, SK-OV-3) [nM] | IC50 (Hut78; Homo sapiens, HuT78) [nM] | IC50 (H322; NCI-H322) [nM] | IC50 (HT29; Homo sapiens, HT-29) [nM] | IC50 (ASPC-1; Homo sapiens, ASPC1) [nM] | IC50 (Jurkat; Homo sapiens, Jurkat) [nM] | IC50 (N87) [nM] | IC50 (MV4; 11; Homo sapiens, MV4-11) [nM] | IC50 (MCF7; Homo sapiens, MCF7) [nM] | IC50 (H226; Homo sapiens, NCI-H226) [nM] | IC50 (N87; [1]) [nM] | other results
CC[C@@]1(O)C(=O)OCc2c1cc1n(c2=O)Cc2c-1nc1cc(F)c(C)cc1c2C=NOCCNC(=O)CO [Compound B1, (S,E/Z)—N-(2-((((4-Ethyl-8-fluoro-4-hydroxy-9-methyl-3,14-dioxo-3,4,12,14-tetrahydro-1H-pyrano[3′,4′:6,7]indolizino[1,2-b]quinolin-11-yl)methylene)amino)oxy)ethyl)-2-hydroxyacetamide] | 18 | 0.45 | 1.1 | 2.8 | 7.8 | 31 | 9.4 | 9.8 | 11 | 12 | 28 | 54 | 3 | 11 | 18 | 19 | 153 | – | –
CC[C@@]1(O)C(=O)OCc2c1cc1n(c2=O)Cc2c-1nc1cc(F)c(C)c3c1c2[C@@H](NC(=O)COCNC(=O)CNC(=O)[C@H](Cc1ccccc1)NC(=O)CNC(=O)CNC(=O)CCCCCN1C(=O)C=CC1=O)CC3 [Deruxtecan, reference compound] ({Hexanoyl(6-maleimido)}-GGFG[NHCH2OCH2CO]-Exatecan) | – | – | – | – | – | – | – | – | – | – | – | – | – | – | – | – | – | 9.9 | IC50 (A431; A431 cells, incubated for 4 or 5 days, Table 1, read-out: IC50): 7.7 nM; IC50 (Raji; Raji cells, incubated for 4 or 5 days, Table 1, read-out: IC50): 0.42 nM; IC50 (RS4; 11; RS4, 11 cells, incubated for 4 or 5 days, Table 1, read-out: IC50): 0.65 nM; IC50 (T47D; T47D cells, incubated for 4 or 5 days, Table 1, read-out: IC50): 1.9 nM; IC50 (Ramos; Ramos cells, incubated for 4 or 5 days, Table 1, read-out: IC50): 3.8 nM; IC50 (KB; KB cells, incubated for 4 or 5 days, Table 1, read-out: IC50): 7.2 nM; IC50 (A375; A375 cells, incubated for 4 or 5 days, Table 1, read-out: IC50): 3.6 nM; IC50 (Skov-3; Skov-3 cells, incubated for 4 or 5 days, Table 1, read-out: IC50): 9.8 nM; IC50 (Hut78; Hut78 cells, incubated for 4 or 5 days, Table 1, read-out: IC50): 9.9 nM; IC50 (H322; H322 cells, incubated for 4 or 5 days, Table 1, read-out: IC50): 8.2 nM; IC50 (HT29; HT29 cells, incubated for 4 or 5 days, Table 1, read-out: IC50): 13 nM; IC50 (ASPC-1; ASPC-1 cells, incubated for 4 or 5 days, Table 1, read-out: IC50): 29 nM; IC50 (Jurkat; Jurkat cells, incubated for 4 or 5 days, Table 1, read-out: IC50): 2.3 nM; IC50 (MV4; 11; MV4, 11 cells, incubated for 4 or 5 days, Table 1, read-out: IC50): 6.9 nM; IC50 (MCF7; MCF7 cells, incubated for 4 or 5 days, Table 1, read-out: IC50): 5.7 nM; IC50 (H226; H226 cells, incubated for 4 or 5 days, Table 1, read-out: IC50): 388 nM
CC[C@@]1(O)C(=O)OCc2c1cc1n(c2=O)Cc2c-1nc1cc(F)c(C)cc1c2C=NOCCCNC(=O)CO [Compound B2, (S,E/Z)—N-(3-((((4-ethyl-8-fluoro-4-hydroxy-9-methyl-3,14-dioxo-3,4,12,14-tetrahydro-1H-pyrano[3′,4′:6,7]indolizino[1,2-b]quinolin-11-yl)methylene)amino)oxy)propyl)-2-hydroxyacetamide] | – | – | – | – | – | – | – | – | – | – | – | – | – | – | – | – | – | 9.1 | IC50 (A431; Homo sapiens, A-431, A431 cells, incubated for 4 or 5 days, Table 1, read-out: IC50): 9.8 nM; IC50 (Raji; Homo sapiens, Raji cells, incubated for 4 or 5 days, Table 1, read-out: IC50): 0.58 nM; IC50 (RS4; 11; Homo sapiens, RS4, 11 cells, incubated for 4 or 5 days, Table 1, read-out: IC50): 0.88 nM; IC50 (T47D; Homo sapiens, T47D cells, incubated for 4 or 5 days, Table 1, read-out: IC50): 2.4 nM; IC50 (Ramos; Homo sapiens, Ramos cells, incubated for 4 or 5 days, Table 1, read-out: IC50): 6.6 nM; IC50 (KB; Homo sapiens, KB cells, incubated for 4 or 5 days, Table 1, read-out: IC50): 19 nM; IC50 (A375; Homo sapiens, A-375, A375 cells, incubated for 4 or 5 days, Table 1, read-out: IC50): 6.9 nM; IC50 (Skov-3; Homo sapiens, SK-OV-3, Skov-3 cells, incubated for 4 or 5 days, Table 1, read-out: IC50): 11 nM; IC50 (Hut78; Homo sapiens, Hut78 cells, incubated for 4 or 5 days, Table 1, read-out: IC50): 9.1 nM; IC50 (H322; NCI-H322, H322 cells, incubated for 4 or 5 days, Table 1, read-out: IC50): 12 nM; IC50 (HT29; Homo sapiens, HT-29, HT29 cells, incubated for 4 or 5 days, Table 1, read-out: IC50): 16 nM; IC50 (ASPC-1; Homo sapiens, ASPC1, ASPC-1 cells, incubated for 4 or 5 days, Table 1, read-out: IC50): 40 nM; IC50 (Jurkat; Homo sapiens, Jurkat cells, incubated for 4 or 5 days, Table 1, read-out: IC50): 2.1 nM; IC50 (MV4; 11; Homo sapiens, MV4, 11 cells, incubated for 4 or 5 days, Table 1, read-out: IC50): 14 nM; IC50 (MCF7; Homo sapiens, MCF7 cells, incubated for 4 or 5 days, Table 1, read-out: IC50): 9.2 nM; IC50 (H226; Homo sapiens, NCI-H226, H226 cells, incubated for 4 or 5 days, Table 1, read-out: IC50): 113 nM
CC[C@@]1(O)C(=O)OCc2c1cc1n(c2=O)Cc2c-1nc1cc(F)c(C)cc1c2C=NOCC(C)CNC(=O)CO (mixture of isomers) [Compound B3, N-(3-((((E/Z)—((S)-4-Ethyl-8-fluoro-4-hydroxy-9-methyl-3,14-dioxo-3,4,12,14-tetrahydro-1H-pyrano[3′,4′:6,7]indolizino[1,2-b]quinolin-11-yl)methylene)amino)oxy)-2-methyl-propyl)-2-hydroxyacetamide] | 10 | 0.32 | 0.73 | 1.3 | 7.2 | 18 | 5.9 | 3.4 | 7 | 3.9 | 13 | 25 | 1.2 | 7 | 10 | 21 | 401 | – | –
